Assay results reported in ChEMBL document CHEMBL6109120, “Discovery of Novel SIK2/3 Inhibitors for the Potential Treatment of MEF2C+ Acute Myeloid Leukemia (AML)” (J Med Chem, 2025).

Legend:
[1] = target: MAP kinase-interacting serine/threonine-protein kinase 2 (Homo sapiens, UniProt Q9HBH9); test: Binding affinity to human MKNK2 by KINOMEscan assay
[2] = target: Tyrosine-protein kinase Lck (Homo sapiens, UniProt P06239); test: Binding affinity to human LCK by KINOMEscan assay
[3] = target: T1, Serine/threonine-protein kinase ULK2 (Homo sapiens, UniProt Q8IYT8)
T1 sequence (Q8IYT8 whole entry): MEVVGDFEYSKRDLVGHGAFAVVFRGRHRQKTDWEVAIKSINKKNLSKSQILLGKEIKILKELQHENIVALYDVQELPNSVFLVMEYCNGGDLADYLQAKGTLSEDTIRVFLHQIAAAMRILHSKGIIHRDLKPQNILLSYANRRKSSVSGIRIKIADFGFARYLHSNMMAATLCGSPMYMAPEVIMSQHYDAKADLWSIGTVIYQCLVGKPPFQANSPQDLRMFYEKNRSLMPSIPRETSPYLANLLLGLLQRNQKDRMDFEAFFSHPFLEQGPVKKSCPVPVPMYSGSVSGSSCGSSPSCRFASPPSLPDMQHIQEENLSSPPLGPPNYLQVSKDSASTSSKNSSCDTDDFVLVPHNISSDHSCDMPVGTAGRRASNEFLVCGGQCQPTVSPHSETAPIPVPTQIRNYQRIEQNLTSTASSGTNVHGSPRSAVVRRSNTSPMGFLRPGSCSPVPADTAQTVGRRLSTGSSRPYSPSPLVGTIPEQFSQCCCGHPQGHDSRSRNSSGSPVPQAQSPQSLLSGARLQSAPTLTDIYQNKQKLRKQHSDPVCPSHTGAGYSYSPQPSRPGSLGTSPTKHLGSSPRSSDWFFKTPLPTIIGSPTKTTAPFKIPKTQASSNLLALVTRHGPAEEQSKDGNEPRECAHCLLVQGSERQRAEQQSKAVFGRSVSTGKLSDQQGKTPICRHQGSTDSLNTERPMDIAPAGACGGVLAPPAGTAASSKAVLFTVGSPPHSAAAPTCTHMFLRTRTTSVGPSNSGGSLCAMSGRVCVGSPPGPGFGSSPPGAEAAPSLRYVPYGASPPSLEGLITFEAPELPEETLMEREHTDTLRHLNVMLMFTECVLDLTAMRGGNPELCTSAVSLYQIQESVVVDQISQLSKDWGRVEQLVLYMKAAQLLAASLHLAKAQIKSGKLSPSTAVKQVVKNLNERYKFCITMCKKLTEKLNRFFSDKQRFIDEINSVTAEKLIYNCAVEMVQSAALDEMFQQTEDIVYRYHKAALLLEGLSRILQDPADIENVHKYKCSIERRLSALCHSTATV
Description: Binding affinity to human ULK2 by KINOMEscan assay

[4] = target: Voltage-gated inwardly rectifying potassium channel KCNH2 (Homo sapiens, UniProt Q12809); test: Inhibition of hERG expressed in HEK cells assessed as K+ tail current by whole-cell electrophysiology; assay type: toxicity, cell-based
Chain of Voltage-gated inwardly rectifying potassium channel KCNH2 (Q12809 whole entry): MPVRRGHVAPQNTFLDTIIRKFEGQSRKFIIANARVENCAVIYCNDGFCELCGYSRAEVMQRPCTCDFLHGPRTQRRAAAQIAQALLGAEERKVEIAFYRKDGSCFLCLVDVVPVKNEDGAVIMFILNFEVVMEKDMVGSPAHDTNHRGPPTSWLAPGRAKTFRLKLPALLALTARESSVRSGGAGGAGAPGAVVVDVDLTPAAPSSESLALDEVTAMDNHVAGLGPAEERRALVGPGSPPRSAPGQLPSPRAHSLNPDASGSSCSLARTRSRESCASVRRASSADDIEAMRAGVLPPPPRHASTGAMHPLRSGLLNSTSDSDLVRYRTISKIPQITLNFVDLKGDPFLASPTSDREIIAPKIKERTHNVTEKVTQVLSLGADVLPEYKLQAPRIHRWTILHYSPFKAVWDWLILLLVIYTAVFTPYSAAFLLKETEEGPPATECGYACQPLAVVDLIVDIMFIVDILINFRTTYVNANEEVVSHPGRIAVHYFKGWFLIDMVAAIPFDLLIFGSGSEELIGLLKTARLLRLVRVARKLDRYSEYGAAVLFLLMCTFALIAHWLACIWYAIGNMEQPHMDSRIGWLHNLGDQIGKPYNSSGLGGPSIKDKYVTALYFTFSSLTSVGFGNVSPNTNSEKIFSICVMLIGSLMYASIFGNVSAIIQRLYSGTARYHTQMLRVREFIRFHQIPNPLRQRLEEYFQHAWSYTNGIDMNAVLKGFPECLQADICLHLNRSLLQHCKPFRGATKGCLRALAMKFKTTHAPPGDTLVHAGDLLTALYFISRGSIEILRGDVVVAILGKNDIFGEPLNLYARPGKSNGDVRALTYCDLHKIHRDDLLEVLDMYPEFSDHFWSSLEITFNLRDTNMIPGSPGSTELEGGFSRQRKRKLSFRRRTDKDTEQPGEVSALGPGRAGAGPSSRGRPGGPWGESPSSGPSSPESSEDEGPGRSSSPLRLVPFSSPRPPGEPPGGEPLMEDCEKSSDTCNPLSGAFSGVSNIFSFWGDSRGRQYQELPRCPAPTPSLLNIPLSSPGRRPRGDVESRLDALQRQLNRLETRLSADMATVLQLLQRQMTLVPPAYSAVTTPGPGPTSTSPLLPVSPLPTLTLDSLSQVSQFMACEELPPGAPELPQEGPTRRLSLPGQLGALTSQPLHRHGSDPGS

[5] = target: Platelet-derived growth factor receptor alpha (Homo sapiens, UniProt P16234)
Chain of Platelet-derived growth factor receptor alpha (P16234 whole entry): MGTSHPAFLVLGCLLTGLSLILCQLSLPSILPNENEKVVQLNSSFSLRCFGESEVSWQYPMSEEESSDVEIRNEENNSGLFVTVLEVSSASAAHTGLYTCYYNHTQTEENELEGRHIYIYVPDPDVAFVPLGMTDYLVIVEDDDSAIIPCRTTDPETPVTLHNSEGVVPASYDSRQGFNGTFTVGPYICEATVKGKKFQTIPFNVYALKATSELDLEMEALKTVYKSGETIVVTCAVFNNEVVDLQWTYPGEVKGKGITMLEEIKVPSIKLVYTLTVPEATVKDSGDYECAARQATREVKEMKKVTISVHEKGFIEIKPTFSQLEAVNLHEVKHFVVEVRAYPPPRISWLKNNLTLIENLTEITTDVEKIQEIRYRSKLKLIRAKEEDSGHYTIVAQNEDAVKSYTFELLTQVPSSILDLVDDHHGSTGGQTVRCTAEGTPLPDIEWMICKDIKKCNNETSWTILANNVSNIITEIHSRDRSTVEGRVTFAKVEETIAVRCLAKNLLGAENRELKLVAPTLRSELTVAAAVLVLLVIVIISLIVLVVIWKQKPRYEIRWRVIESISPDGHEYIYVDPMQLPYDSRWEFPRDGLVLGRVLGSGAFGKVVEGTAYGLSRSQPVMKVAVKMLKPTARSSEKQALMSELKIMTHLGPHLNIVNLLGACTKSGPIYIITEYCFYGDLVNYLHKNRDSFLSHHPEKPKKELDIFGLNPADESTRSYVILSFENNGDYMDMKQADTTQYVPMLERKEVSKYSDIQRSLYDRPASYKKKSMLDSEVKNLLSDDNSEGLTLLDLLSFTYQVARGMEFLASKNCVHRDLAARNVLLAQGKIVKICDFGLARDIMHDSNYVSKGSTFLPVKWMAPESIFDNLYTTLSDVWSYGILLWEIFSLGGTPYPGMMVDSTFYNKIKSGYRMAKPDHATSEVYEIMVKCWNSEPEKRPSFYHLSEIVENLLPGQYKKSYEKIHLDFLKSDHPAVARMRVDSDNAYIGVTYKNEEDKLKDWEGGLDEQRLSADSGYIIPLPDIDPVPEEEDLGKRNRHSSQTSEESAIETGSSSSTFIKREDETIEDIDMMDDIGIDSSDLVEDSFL
Description: Binding affinity to human PDGFRalpha by KINOMEscan assay

Chain of Tyrosine-protein kinase Lck (P06239 whole entry): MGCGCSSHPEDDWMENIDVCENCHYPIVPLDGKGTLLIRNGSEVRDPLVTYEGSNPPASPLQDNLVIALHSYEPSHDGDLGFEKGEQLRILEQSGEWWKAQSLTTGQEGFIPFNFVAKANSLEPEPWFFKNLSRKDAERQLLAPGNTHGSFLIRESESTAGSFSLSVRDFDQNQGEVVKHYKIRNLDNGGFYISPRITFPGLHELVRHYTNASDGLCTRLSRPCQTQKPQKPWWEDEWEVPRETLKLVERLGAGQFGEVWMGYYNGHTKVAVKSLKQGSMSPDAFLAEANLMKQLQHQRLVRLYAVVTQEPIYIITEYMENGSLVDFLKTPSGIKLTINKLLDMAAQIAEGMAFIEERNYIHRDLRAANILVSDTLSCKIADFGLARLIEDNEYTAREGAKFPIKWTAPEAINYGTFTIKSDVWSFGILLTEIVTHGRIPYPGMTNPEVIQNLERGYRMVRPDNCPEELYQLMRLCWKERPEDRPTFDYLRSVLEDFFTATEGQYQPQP
Chain of MAP kinase-interacting serine/threonine-protein kinase 2 (Q9HBH9 whole entry): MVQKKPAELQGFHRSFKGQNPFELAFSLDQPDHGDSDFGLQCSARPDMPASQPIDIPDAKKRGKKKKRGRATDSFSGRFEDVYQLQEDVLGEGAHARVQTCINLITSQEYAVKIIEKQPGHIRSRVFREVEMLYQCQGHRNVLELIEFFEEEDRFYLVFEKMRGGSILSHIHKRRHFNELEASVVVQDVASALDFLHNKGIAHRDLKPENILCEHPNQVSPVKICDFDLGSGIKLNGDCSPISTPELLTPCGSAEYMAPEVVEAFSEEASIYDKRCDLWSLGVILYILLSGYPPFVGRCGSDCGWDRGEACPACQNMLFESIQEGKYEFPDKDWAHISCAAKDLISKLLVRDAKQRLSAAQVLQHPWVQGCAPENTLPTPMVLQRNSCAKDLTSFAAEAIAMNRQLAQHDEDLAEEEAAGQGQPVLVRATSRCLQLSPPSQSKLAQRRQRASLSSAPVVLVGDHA

## COc1nc(-c2cc(-c3cnn(C)c3)cnc2N)cc2c1C(=O)N(CC(F)(F)F)CC2
[1]
  IC50: 15 nM
[2]
  IC50: 326 nM
[3]
  IC50: 2080 nM
[4]
  inhibition (INH): 34%
[5]
  IC50: 31 nM
